Data on three molecules can be found in PMC6660985 (Biopolymers, 2019).

The test system of one test is C. neoformans. Particulars: cited from earlier work.
Test [1] deals with C. neoformans strain H99S. Put plainly: Synergy testing. The conditions noted are these: for MIC: Cryptococcus neoformans, H99S, read-out: MIC-B, Drug Alone; for MIC-B, Combination: Drug B in combination with AEC5, average of three independent experiments; for FIC index (FICi): combination of the labelled Drug B with AEC5 (Drug A); for interaction with AEC5 by FICi: combination of the labelled drug with AEC5; for change of the drug's MIC when combined with AEC5: drop of MIC, combination versus alone. In kind it is cell-based, Cryptococcus neoformans.

Structures are written as SMILES.

With `C[C@@H]1[C@H](O)[C@@H](C)/C=C/C=C/C=C/C=C/C=C/C=C/C=C/[C@H](O[C@@H]2O[C@H](C)[C@@H](O)[C@H](N)[C@@H]2O)C[C@@H]2O[C@](O)(C[C@@H](O)C[C@@H](O)[C@H](O)CC[C@@H](O)C[C@@H](O)CC(=O)O[C@H]1C)C[C@H](O)[C@H]2C(=O)O` [Amphotericin B, amphotericin B], the “time to reduce fungal growth by 50%” value in the test with C. neoformans (clinical isolates from HIV/AIDS patients) was not below 10 h. Besides, in test [1], the MIC (commonly the least concentration at which growth counts as inhibited) worked out at 0.0156 µg/mL; the “MIC-B, Combination” value worked out at 0.0156 µg/mL; the “FIC index (FICi)” value came out at 1.50; the “interaction with AEC5 by FICi” value is recorded as “indifferent (0.5 ≤ FICi ≤ 4 indifferent)”. Moreover, the “change of the drug's MIC when combined with AEC5” value in test [1] is recorded as “does not change”.
As for `OC(Cn1cncn1)(Cn1cncn1)c1ccc(F)cc1F` [Fluconazole, fluconazole], the “concentration at which the compound becomes fungicidal” value in the test on C. neoformans (against C. neoformans, primarily fungistatic below) is more than 8 x MIC. Further, in the test with C. neoformans (fluconazole against C. neoformans), the “time for 50% reduction in fungal growth” value is 48 to 72 h. In addition, in test [1], the MIC was found to be 8 µg/mL; the “MIC-B, Combination” value was found to be 2 µg/mL; the “FIC index (FICi)” value was 0.75; the “interaction with AEC5 by FICi” value was “indifferent (0.5 ≤ FICi ≤ 4 indifferent)”. Also, the “change of the drug's MIC when combined with AEC5” value in test [1] is on record as “four-fold”.
`Nc1[nH]c(=O)ncc1F` [Flucytosine, flucytosine]: in test [1], the MIC is 4 µg/mL; the “MIC-B, Combination” value was determined as 0.25 µg/mL; the “FIC index (FICi)” value is 0.23; the “interaction with AEC5 by FICi” value was “synergistic (FICi < 0.5 synergistic)”.
